Key:
SN 47 p4 normal cells = assay: proliferation of mammary epithelial cells, IC50 after 6 days; format: cell-based; conditions: Epithelial cell, 144 h, 6 days of treatment
Experimental: (§1) Another study was also performed in order to determine the effect of SR 31747 on the in vitro and in vivo growth of mammary and prostate epithelial tumour cells.
(§2) The study consisted in evaluating the potential antitumour activity of SR 31747 on the growth of a variety of cancerous breast epithelial lines. The study is carried out in vitro on cell cultures, as well as in vivo after inoculation of tumoral mammary lines in "nude" athymic mice.
(§3) Table B--Effect of SR 31747 on the proliferation of mammary epithelial cells. Determination of the IC50 after 6 days of treatment--medium changed every 48 hours

MCF7 RPMI p6-7 = assay: as above; format: cell-based; conditions: Homo sapiens, MCF7, 144 h, 6 days of treatment
Experimental: as §1, §2
(§4) The cell lines which were used are as follows:
(§5) The hormone-sensitive MCF-7 line originates from a pleural effusion of a breast adenocarcinoma. The antioestrogen-resistant MCF-7LY2 cells were obtained from the MCF-7LCC1 and MCF-7LCC2 lines were developed in nude mice, after inoculation of the MCF-7 cells. The two lines are oestrogen-independent. The MCF-7CC2 cells are also antioestrogen-resistant. The MCF-7AZTD5 line is derived from the MCF-7 line after stable transfection with the H-ras oncogene. The MCF-7AZTD5 cells are antioestrogen-resistant in vitro. All of these lines are maintained on DMEM/F12 (1/1, vol/vol) containing 10% decomplemented foetal calf serum and 16 ng/ml of human insulin. The MCF-7LCC2 line is cultured in the permanent presence of 10^-7 M hydroxytamoxifen. The MDA-MB231 tumoral mammary epithelial cells are oestrogen- and antioestrogen-insensitive. They are cultured in L15 medium supplemented with 10% FCS, 1% essential amino acids and 10 μg/ml of human insulin.
(§6) All the lines are maintained at 37° C. in a humid air/CO2 (95%/5%) atmosphere, except for the MDA-MB231 cells which are cultured in the absence of CO2. THe cell lines are checked regularly free of mycoplasms.
as §3

MDA-MB231 cells = assay: tumours developed in ovariectomized nude mice from MDA-MB231 cells; format: in vivo; conditions: 500 μg SR 31747 + E2 daily intraperitoneally, to day 92
Experimental: The inoculation and treatment of the animals were carried out as follows:
The animals used are "nude" female athymic mice, which may or may not have been ovariectomized, obtained at 4 weeks old (R. Janvier). Before inoculating the hormone-sensitive mammary cells (MCF-7, MCF-7AZTD5), the animals receive 10 μl pf ethanolic 10 ^-5 oestradiol solution applied percutaneously. The treatment is repeated three times over one week. One million cells suspended in 100 μl of PBS/Ca are inoculated subcutaneously above each of the hips. The following day, the animals receive 200 μl of injection solution (ethanol/Tween 80/physiological saline, 1/1/18, vol/vol) containing the various reactions at the predefined concentrations. The injections are made intraperitoneally and are repeated every day.
FIGS. 1 and 2 indicate the effect of SR 31747 on tumours developed in ovariectomized "nude" mice from MDA-MB231 cells.
Each mouse receives 5×10^6 MDA-MB231 cells above each hip (i.e. 2 points of inoculation per mouse). The animals are then treated daily via the intraperitoneal route and receive 500 μg SR 31747+0.003 μg E2 (20 mice). The control batch receives 0.0003 μg E2 (20 mice). The amount (as a percentage of inoculated tumours) and size of the tumours developed are determined at different times in the course of the treatment. At the end of the treatment (day 92), the animals are sacrificed and weighed. […]

[1] = test system: human mammary carcinoma MCF-7; assay: MTT colorimetric proliferation test, 5 days; format: cell-based; conditions: MCF7, 120 h, read-out: percentage of cell proliferation relative to the untreated control taken as 100%
Experimental: (§7) Among other cells used, the following lines were routinely cultured in RPMI medium supplemented with 10% foetal calf serum (FCS):
human mammary carcinoma MCF-7
(§8) The antitumour activity is measured according to the colorimetry method using MTT, 3-(4,5-dimethylthiazole-2,5-diphenyltetrazolium) bromide as described by Mosmann T., Journ. of Im. Methods; 1983, 65, 55.
(§9) This colorimetric assay makes it possible to measure quantitatively the antitumour activity of a solution containing a compound used according to the invention.
(§10) According to the procedure used, the suspended cells (such as the myeloma cells) are inoculated at 2×10^3 cells/ml in 1 ml wells in defined medium. The adherent cells (such as the MCF-7 cells) are inoculated at 5×10^4 cells/ml in 1 ml wells in RPMI medium+0.5% FCS overnight. The next day, the cell carpet is washed twice and replaced by the defined medium.
(§11) The defined medium corresponds to: RPMI+10 μg/ml insulin+10 μg/ml human transferrin.
(§12) In order to carry out this test, cells are maintained in the presence of the solution containing a compound used according to the invention for 5 days, and the MTT is then added to the culture medium.
(§13) The 5 day period which was selected corresponds to the optimum time for the activity. After culturing for 5 days, the proliferation of the cells is measured by the test described above. The optical density at 570 nm is measured. A blue coloration develops in the wells where the cells are still alive. The intensity of the coloration is proportional to the quantity of live cells.

MCF7 + E2 10-9M = assay: proliferation of mammary epithelial cells, IC50 after 6 days, with oestradiol; format: cell-based, human; conditions: for IC50: MCF7 + E2 10^-9M, 0.5% FCS, 6 days of treatment
Experimental: as §1, §2, §4, §5, §6, §3

[2] = test system: human lung carcinoma A549; assay: MTT colorimetric proliferation test, 5 days; format: cell-based; conditions: 120 h, read-out: percentage of cell proliferation relative to the untreated control taken as 100%
Experimental: as §7
human lung carcinoma A549
as §8, §9, §10, §11, §12, §13

tumour cells = assay: biochemical and pharmacological studies illustrated above (binding and antiproliferative tests)
Experimental: The membranes were prepared as follows: 10 MCF-7 cells are homogenized for 10 seconds on a Polytron® in 10 ml of Hepes® buffer pH=7.4 containing: 210 mM D-mannitol, 70 mM sucrose, 1 mM EDTA, 0.3 mM PMSF. The homogenate is centrifuged at 650 xg for 15 minutes and the supernatant is then taken up and centrifuged for 1 at 100,000 xg. The pellet is resuspended in Tris-HCl buffer pH=7.4 at a concentration of 1 mg/ml and stored at-70° C. The total binding is carried out in a 5 ml tube into which the following are introduced:
The non-specific binding is performed by adding 25 μl of 10^-5 M SR 31747 to the above solution (final volume 250 μl) and then incubating for 30 at 25° C. The free and bound fractions are separated by placing 200 μl on a column of 1 ml of Sephadex® LH 20 and the radioactivity is then counted on the first 2 ml obtained by eluting the column with 50 mM Tris buffer ph=7.4.
The 5 day period which was selected corresponds to the optimum time for the activity. After culturing for 5 days, the proliferation of the cells is measured by the test described above. The optical density at 570 nm is measured. […] The intensity of the coloration is proportional to the quantity of live cells.

[3] = test system: mammary tumoral epithelial cells; assay: proliferation of tumoral breast epithelial lines, summary statements; format: cell-based
Experimental: as §1, §2, §4
as §5, with “They are cultured in L15 medium supplemented with 10% FCS, 1% essential amino acids and 10 μg/ml of human insulin.” left out

LCC2 p26-27 (MCF-7LCC2) = assay: proliferation of mammary epithelial cells, IC50 after 6 days; format: cell-based, human; conditions: 6 days of treatment
Experimental: as §1, §2, §4, §5, §6, §3

IC50 (MCF7 RPMI p6-7; MCF7 RPMI p6-7, 0% FCS): 0.003 µM | IC50 (MCF7 RPMI p6-7; MCF7 RPMI p6-7, 0.1% FCS): 0.007 µM | IC50 (MCF7 + E2 10-9M; Homo sapiens, MCF7, 144 h): 0.4 µM | IC50 (MCF7 + E2 10-9M): 0.3 µM | IC50 (LCC2 p26-27 (MCF-7LCC2); Homo sapiens, LCC2, 144 h, LCC2 p26-27, 0.1 DCC): 0.002 µM | IC50 (LCC2 p26-27 (MCF-7LCC2); Homo sapiens, LCC2, 144 h, LCC2 p26-27, 5% DCC): 0.4 µM | IC50 (LCC2 p26-27 (MCF-7LCC2); LCC2 p26-27, 5% DCC): 0.3 µM
Compound: CCN(C/C=C\c1ccc(C2CCCCC2)c(Cl)c1)C1CCCCC1 [SR 31747, cis-N-Cyclohexyl-N-ethyl [3-(3-chloro-4-cyclo-hexylphenyl)allyl]amine]
IC50 (SN 47 p4 normal cells; 0.5% FCS): 0.4 µM | IC50 (SN 47 p4 normal cells; 10% FCS): > 10 µM | size, weight and frequency of tumours developed (MDA-MB231 cells): tendency to reduce the size, weight and frequency of tumours | activity at 10 pM ([1]; MCF-7, 10 pM): 100% | activity at 0.0001 µM ([1]; MCF-7, 100 pM): 100% | activity at 0.001 µM ([1]; MCF-7, 1 nM): 83% | activity at 0.01 µM ([1]; MCF-7, 10 nM): 75% | activity at 0.1 µM ([1]; MCF-7, 100 nM): 58% | activity at 1 µM ([1]; MCF-7, 1 μM): 34% | activity at 10 µM ([1]; MCF-7, 10 μM): 5% | reversal of the stimulatory action of oestradiol (MCF7 + E2 10-9M; hormone-sensitive MCF-7 line): incapable of reversing the stimulatory action of oestradiol | activity at 10 pM ([2]; A549, 10 pM): 100% | activity at 0.0001 µM ([2]; A549, 100 pM): 88% | activity at 0.001 µM ([2]; A549, 1 nM): 56% | activity at 0.01 µM ([2]; A549, 10 nM): 50% | activity at 0.1 µM ([2]; A549, 100 nM): 38% | activity at 1 µM ([2]; A549, 1 μM): 14% | activity at 10 µM ([2]; A549, 10 μM): 10% | activity in the biochemical and pharmacological studies (tumour cells): best activity | inhibition of cell proliferation at high concentration (cytotoxic effects) ([3]; 10^-6 M and occasionally 10^-7 M SR 31747): virtually total inhibitions of the cell proliferation | action on the proliferation of tumor epithelial lines ([3]; reduced concentrations of saline (serum)): exerts an inhibitory action on the proliferation of all the tumor epithelial lines tested
